Experimental data reported in ChEMBL document CHEMBL1667742, “Angiotensin II receptor type 1 (AT1) selective nonpeptidic antagonists--a perspective” (Bioorg Med Chem, 2010).
Numbering of substitutions follows the chain as printed. One block for each molecule: values may come before it.

How the values were obtained:
[1] = target: T1, Type-1 angiotensin II receptor (Oryctolagus cuniculus) (UniProt P34976); test: (§1) Antagonist activity at angiotensin AT1 receptor in rabbit aorta; assay type: functional, tissue-based
T1 sequence (whole entry): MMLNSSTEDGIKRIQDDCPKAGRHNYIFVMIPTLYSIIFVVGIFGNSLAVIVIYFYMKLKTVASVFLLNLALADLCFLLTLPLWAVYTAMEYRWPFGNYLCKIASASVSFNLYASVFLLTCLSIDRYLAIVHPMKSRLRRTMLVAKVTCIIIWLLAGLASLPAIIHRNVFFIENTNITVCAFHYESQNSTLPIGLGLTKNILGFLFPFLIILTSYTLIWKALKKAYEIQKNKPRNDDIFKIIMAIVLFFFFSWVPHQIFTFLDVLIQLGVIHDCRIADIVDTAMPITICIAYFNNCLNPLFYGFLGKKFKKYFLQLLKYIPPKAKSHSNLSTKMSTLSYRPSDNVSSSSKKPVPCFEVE

[2] = system: Rattus norvegicus; test: Antihypertensive activity in renal hypertensive rat model assessed as reduction of mean arterial blood pressure at 10 mg/kg, po; assay type: functional, Artery; design: scale not given: the % may be the effect or the level left
[3] = system: Rattus norvegicus; test: Antihypertensive activity in renal hypertensive rat model assessed as reduction of mean arterial blood pressure at 30 mg/kg, po; assay type: functional, Artery; design: scale not given: the % may be the effect or the level left
[4] = system: Rhesus monkey; test: Antihypertensive activity in salt depleted normotensive monkey model assessed as reduction of blood pressure at 10 mg/kg, po; assay type: functional, Macaca mulatta; design: scale not given: the % may be the effect or the level left
[5] = system: Rattus norvegicus; test: Antihypertensive activity in po dosed conscious goldblatt hypertensive rat model assessed as reduction of angiotensin 2-induced mean arterial blood pressure; assay type: functional; conditions: Artery
[6] = (§2) Antagonist activity at angiotensin AT1 receptor in rat liver membranes; assay type: functional, cell membranes, Membrane
[7] = Antagonist activity at angiotensin AT1 receptor in rat kidney homogenates; assay type: functional, tissue-based
[8] = Displacement of radiolabeled angiotensin2 from angiotensin AT1 receptor in rat vascular smooth muscle
[9] = system: Rattus norvegicus; test: Antihypertensive activity in iv dosed renal hypertensive rat model; assay type: functional; conditions: read-out: ED50
[10] = Antagonist activity at angiotensin AT1 receptor in rat adrenal cortical membranes; assay type: functional, cell membranes
[11] = Binding affinity to angiotensin AT1 receptor in rat liver membranes; assay type: cell membranes, Membrane
[12] = target: T2, Type-1 angiotensin II receptor (Bos taurus) (UniProt P25104); test: Binding affinity to angiotensin AT1 receptor in bovine adrenal cortex membranes; assay type: cell membranes; conditions: Membrane
T2 sequence (whole entry): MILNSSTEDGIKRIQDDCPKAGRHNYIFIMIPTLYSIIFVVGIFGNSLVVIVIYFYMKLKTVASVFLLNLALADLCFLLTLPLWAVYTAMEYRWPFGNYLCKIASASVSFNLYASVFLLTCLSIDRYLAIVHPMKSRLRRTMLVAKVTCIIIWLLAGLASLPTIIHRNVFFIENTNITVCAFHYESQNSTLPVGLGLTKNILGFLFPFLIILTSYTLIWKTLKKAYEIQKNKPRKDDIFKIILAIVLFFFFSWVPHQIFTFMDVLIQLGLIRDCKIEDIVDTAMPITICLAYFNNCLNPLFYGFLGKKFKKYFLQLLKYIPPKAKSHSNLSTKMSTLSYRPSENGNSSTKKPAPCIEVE

[13] = Displacement of radiolabeled angiotensin2 from angiotensin AT1 receptor in rat adrenal cortex membranes; assay type: cell membranes, Membrane
[14] = system: Rattus norvegicus; test: Antihypertensive activity in po dosed renal hypertensive rat model; assay type: functional; conditions: read-out: ED50
[15] = Antagonist activity at angiotensin AT1 receptor in rat mesenteric artery; assay type: functional
[16] = target: T3, Type-1 angiotensin II receptor (Homo sapiens) (UniProt P30556); test: Binding affinity to angiotensin AT1 receptor
T3 sequence (whole entry): T1 sequence (whole entry) with M2I, A49V, V254I, V270I, H272R, K311R, S349T, V353A

[17] = system: Rattus norvegicus; test: Antihypertensive activity in po dosed renal hypertensive rat model assessed as reduction of angiotensin 2-induced blood pressure up to 24 hrs; assay type: functional
[18] = target: T4, Type-1 angiotensin II receptor (Oryctolagus cuniculus, UniProt P34976); test: as §1; assay type: functional, tissue-based
T4 sequence (P34976 whole entry): T1 sequence (whole entry)

[19] = Binding affinity to angiotensin AT1 receptor in rat cortical membranes; assay type: cell membranes
[20] = Binding affinity to angiotensin AT1 receptor in bovine adrenal cortex membranes
[21] = target: T4, Type-1 angiotensin II receptor; test: Antagonist activity at angiotensin AT1 receptor in rabbit aortic strip assessed as inhibition of angiotensin 2-induced contractile response; assay type: functional; conditions: read-out: pA2 (converted)
[22] = system: Rattus norvegicus; test: Antihypertensive activity in furosemide-treated sodium depleted rat model assessed as reduction of blood pressure at 10 mg/kg, po; assay type: functional
[23] = Oral bioavailability in rat; assay type: ADME, organism-based; conditions: in vivo
[24] = system: Rattus norvegicus; test: Antihypertensive activity in furosemide-treated sodium depleted rat model assessed as reduction of blood pressure at 3 mg/kg, po; assay type: functional
[25] = organism: Rattus norvegicus; test: as §2; assay type: functional, cell membranes; conditions: Membrane
[26] = Half life in rat; assay type: ADME, organism-based; conditions: in vivo
[27] = organism: Rattus norvegicus; test: Antihypertensive activity in renal hypertensive rat model assessed as reduction of blood pressure; assay type: functional
[28] = target: T5, Type-1 angiotensin II receptor (Cavia porcellus, UniProt Q9WV26); test: Antagonist activity at angiotensin AT1 receptor in guinea pig ileum; assay type: functional, tissue-based; conditions: read-out: pA2 (converted)
T5 sequence (Q9WV26 whole entry): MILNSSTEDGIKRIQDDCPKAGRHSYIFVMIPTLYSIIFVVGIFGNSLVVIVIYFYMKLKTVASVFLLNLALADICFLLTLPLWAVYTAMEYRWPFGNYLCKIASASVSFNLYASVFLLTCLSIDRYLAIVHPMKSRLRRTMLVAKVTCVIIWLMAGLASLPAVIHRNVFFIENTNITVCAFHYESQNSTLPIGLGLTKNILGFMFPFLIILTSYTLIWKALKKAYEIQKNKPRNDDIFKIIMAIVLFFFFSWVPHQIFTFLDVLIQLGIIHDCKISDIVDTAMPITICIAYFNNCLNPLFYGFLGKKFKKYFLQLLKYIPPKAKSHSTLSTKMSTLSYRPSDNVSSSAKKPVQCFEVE

SMILES: CCCCc1ncc(/C=C2/C(=O)N(CCCC)C(=O)N2Cc2csc(C)n2)n1Cc1ccc(C(=O)OC)cc1
Activity [1]: 3.8 nM
Activity [2]: 25%
Activity [3]: 40%
Activity [4]: 27%

SMILES: CCc1cc2c(c(CC)n1)CCC(=O)N2Cc1ccc(-c2ccccc2-c2nnn[nH]2)cc1
ED50 [17]: 3 mg/kg

SMILES: CCc1nc2c(C)cc(C)nc2n1Cc1ccc2c(c1)C(Cc1nnn[nH]1)c1ccccc1-2 (centres undefined)
IC50 [20]: 11 nM
Kb [21]: 0.631 nM

SMILES: CCc1nc2c(C)cc(C)nc2n1Cc1cccc([C@@H](c2ccccc2)[C@@H](C)C(=O)O)c1
Activity [22]: 39 mmHg
bioavailability [23]: 91%
Activity [24]: 24 mmHg
Activity [25]: 0.069 µM
half-life [26]: 9.1 h

SMILES: CCc1nc2c(C)cc(C)nc2n1Cc1ccc2nc(-c3ccccc3NS(=O)(=O)C(F)(F)F)ccc2c1 [GA0113]
ED25 [27]: 0.015 mg/kg
bioavailability [23]: 94%

SMILES: CCCc1nc2cc(C(=O)OC)[nH]c2n1Cc1ccc(-c2ccccc2C(=O)O)cc1
Kb [28]: 15.8 nM

Second part, led by results:

IC50 [6]: 5.2 nM
SMILES: Cc1nc(C)c2c(n1)N(Cc1ccc(-c3ccccc3-c3nnn[nH]3)cc1)C(=O)CC2 [TASOSARTAN]
ED50 [5]: 0.58 mg/kg

pA2 [7]: 7.8
IC50 [8]: 20 nM
IC50 [10]: 0.82 nM
IC50 [11]: 6.7 nM
Activity [12]: 11.6 nM
IC50 [13]: 19 nM
SMILES: CCCCc1nc(Cl)c(CO)n1Cc1ccc(-c2ccccc2-c2nnn[nH]2)cc1 [LOSARTAN]
ED50 [9]: 0.78 mg/kg
ED50 [14]: 0.59 mg/kg

IC50 [15]: 1.3 nM
pKb [16]: 10.6
SMILES: CCCCc1nc2c(n1Cc1ccc(-c3ccccc3-c3nnn[nH]3)cc1)C(=O)N1C3CCC(CC3)N1C2

IC50 [18]: 0.2 nM
IC50 [19]: 0.7 nM
SMILES: CCCCc1nc2ccn(CC(=O)N(C)C)c(=O)c2n1Cc1ccc(-c2ccccc2-c2nnn[nH]2)cc1
